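Assay format: 96-well plates, 48-hour exposure. GI50 = concentration required for 50% inhibition of growth.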 The source made the active and inactive calls. No stated cut-off is given here; in the data, active = GI50 up to about 1.1 µM and inactive = higher.
Tests used:
Test in all cases: NCI tumour cell line growth inhibition, 48 h
[1] = tested on: OVCAR-4
[2] = tested on: HCC 2998
[3] = tested on: 786-0
[4] = tested on: EKVX
[5] = tested on: ACHN
[6] = tested on: IGROV-1
[7] = tested on: A549
[8] = tested on: HT-29
[9] = tested on: OVCAR-8
[10] = tested on: SF-268
[11] = tested on: SN12C
[12] = tested on: SF-539
[13] = tested on: MDA-MB-435
[14] = tested on: OVCAR-3
[15] = tested on: SK-MEL-28
[16] = tested on: U-251
[17] = tested on: SK-MEL-2
[18] = tested on: RPMI-8226
[19] = tested on: SR
[20] = tested on: COLO 205

SMILES	GI50 [1]	GI50 [2]	GI50 [3]	GI50 [4]	GI50 [5]	GI50 [6]	GI50 [7]	GI50 [8]	GI50 [9]	GI50 [10]	GI50 [11]	GI50 [12]	GI50 [13]	GI50 [14]	GI50 [15]	GI50 [16]	GI50 [17]	GI50 [18]	GI50 [19]	GI50 [20]
CC(C)(CO[C@H]1C[C@H]2CC[C@@]1(C)C2(C)C)[N+](=O)[O-]	30.3 µM (inactive)	2.07 µM (inactive)	14.3 µM (inactive)	16.7 µM (inactive)	33.6 µM (inactive)	30.8 µM (inactive)	25.5 µM (inactive)	13 µM (inactive)	22.6 µM (inactive)	33 µM (inactive)	27.4 µM (inactive)	16.4 µM (inactive)	18.8 µM (inactive)	22.8 µM (inactive)	18.5 µM (inactive)	16.7 µM (inactive)	16.6 µM (inactive)	17.7 µM (inactive)	5.25 µM (inactive)	15.6 µM (inactive)
COc1ccc(CSC2=C(C#N)C(=O)NC3(CCCCC3)S2)cc1	36.6 µM (inactive)	28.2 µM (inactive)	64.1 µM (inactive)	54 µM (inactive)	> 93.5 µM (inactive)	> 69.7 µM (inactive)	> 83.8 µM (inactive)	38.1 µM (inactive)	> 59.3 µM (inactive)	47.1 µM (inactive)	65.2 µM (inactive)	> 56.6 µM (inactive)	19 µM (inactive)	35.2 µM (inactive)	> 73.6 µM (inactive)	48.4 µM (inactive)	38.6 µM (inactive)	> 56.6 µM (inactive)	71.3 µM (inactive)	> 61.8 µM (inactive)
COc1cccc(C2c3cc4c(cc3OC(N3CCCCC3)C2C)OCO4)c1O (stereo not given)	7.38 µM (inactive)	10.5 µM (inactive)	4.72 µM (inactive)	14.7 µM (inactive)	6.55 µM (inactive)	8.81 µM (inactive)	6.52 µM (inactive)	3.43 µM (inactive)	5.9 µM (inactive)	9.71 µM (inactive)	4.69 µM (inactive)	2.22 µM (inactive)	1.75 µM (inactive)	2.93 µM (inactive)	6.27 µM (inactive)	3.82 µM (inactive)	9.16 µM (inactive)	3.21 µM (inactive)	3.01 µM (inactive)	4.89 µM (inactive)
CN(C)CCCNC(=O)c1cc(NC(=O)c2cc(NS(=O)(=O)c3ccc4c(c3)C(=O)c3ccccc3C4=O)cn2C)cn1C	> 100 µM (inactive)	> 100 µM (inactive)	> 100 µM (inactive)	> 100 µM (inactive)	> 100 µM (inactive)	> 100 µM (inactive)	> 100 µM (inactive)	65.3 µM (inactive)	> 100 µM (inactive)	> 100 µM (inactive)	> 100 µM (inactive)	> 100 µM (inactive)	83.8 µM (inactive)	95.5 µM (inactive)	86.5 µM (inactive)	81.3 µM (inactive)	> 100 µM (inactive)	21.5 µM (inactive)	27 µM (inactive)	83.9 µM (inactive)
O=C1/C(=C/c2ccccc2)CCc2ccc([N+](=O)[O-])cc21	39.5 µM (inactive)	> 88.3 µM (inactive)	28.4 µM (inactive)	> 91.8 µM (inactive)	40.4 µM (inactive)	72.9 µM (inactive)	> 100 µM (inactive)	> 100 µM (inactive)	82.6 µM (inactive)	30.7 µM (inactive)	> 75.9 µM (inactive)	64.3 µM (inactive)	40.8 µM (inactive)	> 100 µM (inactive)	> 81.8 µM (inactive)	27.1 µM (inactive)	13.6 µM (inactive)	0.492 µM (active)	4.26 µM (inactive)	> 100 µM (inactive)
COc1ccc(OC)c2sc(N3C(=O)/C(=C/c4ccc(N(C)C)cc4)N=C3c3ccccc3)nc12	> 100 µM (inactive)	> 100 µM (inactive)	92.3 µM (inactive)	> 100 µM (inactive)	50.5 µM (inactive)	> 100 µM (inactive)	83.6 µM (inactive)	61.8 µM (inactive)	78.5 µM (inactive)	> 100 µM (inactive)	52.5 µM (inactive)	98.2 µM (inactive)	31.4 µM (inactive)	58.2 µM (inactive)	> 100 µM (inactive)	44.1 µM (inactive)	36.9 µM (inactive)	11 µM (inactive)	19.6 µM (inactive)	> 100 µM (inactive)
CC1CC(C(=O)OC2OC(COC3OC(CO)C(OC4OC(C)C(O)C(O)C4O)C(O)C3O)C(O)C(O)C2O)C2CCC3(C)C(=CCC4(C)C3CCC3C(C)(CO)C(O)C(O)CC34C)C2C1C (stereo not given)	15.1 µM (inactive)	21.8 µM (inactive)	21 µM (inactive)	> 10 µM (inactive)	> 10 µM (inactive)	16.9 µM (inactive)	96.6 µM (inactive)	21.8 µM (inactive)	17.4 µM (inactive)	19 µM (inactive)	20.7 µM (inactive)	18.4 µM (inactive)	18.6 µM (inactive)	23.3 µM (inactive)	17 µM (inactive)	17.5 µM (inactive)	18.9 µM (inactive)	21.4 µM (inactive)	17.9 µM (inactive)	17.3 µM (inactive)
C[C@]12CCC3c4ccc(O)cc4CC[C@H]3C1CC(=O)N(CCN1CCCC1)C2=O (stereo not given in full)	> 10 µM (inactive)	> 10 µM (inactive)	> 10 µM (inactive)	> 10 µM (inactive)	> 10 µM (inactive)	> 10 µM (inactive)	> 10 µM (inactive)	> 10 µM (inactive)	> 10 µM (inactive)	> 10 µM (inactive)	> 10 µM (inactive)	> 10 µM (inactive)	> 10 µM (inactive)	> 10 µM (inactive)	> 10 µM (inactive)	> 10 µM (inactive)	> 10 µM (inactive)	> 10 µM (inactive)	> 10 µM (inactive)	> 10 µM (inactive)
OC(C#CCN1CCCC1)(c1ccccc1)c1ccccc1Cl (stereo not given)	31 µM (inactive)	21.8 µM (inactive)	> 10 µM (inactive)	48.5 µM (inactive)	23.9 µM (inactive)	14.8 µM (inactive)	33.4 µM (inactive)	16.5 µM (inactive)	33.8 µM (inactive)	44.2 µM (inactive)	43.9 µM (inactive)	26.5 µM (inactive)	23.2 µM (inactive)	82.8 µM (inactive)	17.1 µM (inactive)	17.7 µM (inactive)	26.6 µM (inactive)	39.2 µM (inactive)	36.3 µM (inactive)	12.5 µM (inactive)
c1ccc(/N=C2\c3ccccc3CN2c2ccccc2)cc1	> 100 µM (inactive)	> 100 µM (inactive)	> 100 µM (inactive)	> 100 µM (inactive)	> 100 µM (inactive)	> 100 µM (inactive)	> 100 µM (inactive)	> 100 µM (inactive)	> 100 µM (inactive)	> 100 µM (inactive)	> 100 µM (inactive)	> 100 µM (inactive)	> 100 µM (inactive)	> 100 µM (inactive)	> 100 µM (inactive)	> 100 µM (inactive)	> 100 µM (inactive)	> 100 µM (inactive)	> 100 µM (inactive)	> 100 µM (inactive)
CC[C@@]1(O)CC(OC2CC(N3CCOCC3)C(O)C(C)O2)c2c(O)c3c(c(O)c2[C@H]1O)C(=O)c1cccc(O)c1C3=O (stereo not given in full)	0.231 µM (active)	0.223 µM (active)	0.0407 µM (active)	0.318 µM (active)	0.0359 µM (active)	0.0959 µM (active)	0.0267 µM (active)	0.0902 µM (active)	0.0904 µM (active)	0.122 µM (active)	0.0667 µM (active)	0.103 µM (active)	0.304 µM (active)	0.355 µM (active)	0.378 µM (active)	0.08 µM (active)	0.312 µM (active)	0.0897 µM (active)	0.0193 µM (active)	0.0847 µM (active)
COC1(OC)C[C@H](C)[C@@]23O[C@]24C2=CC(=O)C=CC2=N[C@H]3C#C/C=C\C#C[C@]14O	0.501 µM (active)	0.67 µM (active)	0.0675 µM (active)	0.578 µM (active)	0.259 µM (active)	0.724 µM (active)	0.71 µM (active)	0.266 µM (active)	0.659 µM (active)	0.711 µM (active)	0.973 µM (active)	0.634 µM (active)	0.546 µM (active)	0.431 µM (active)	1.08 µM (active)	0.805 µM (active)	1.66 µM (inactive)	0.123 µM (active)	0.032 µM (active)	0.541 µM (active)

Source: ChEMBL document CHEMBL1201862, “PubChem BioAssay data set” (2004)
